Results reported in PubChem BioAssay (NCI).
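The concentration for 50% growth inhibition is given as GI50. Definition used: TGI = concentration required for complete inhibition of growth.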

Tests used:
Test in all cases: NCI tumour cell line growth inhibition, 384-well format
[1] = test system: SF-539 CNS
[2] = test system: SR leukemia
[3] = test system: RPMI-8226 leukemia
[4] = test system: HS 578T breast
[5] = test system: HT29 colon
[6] = test system: SN12C renal
[7] = test system: MOLT-4 leukemia
[8] = test system: NCI/ADR-RES ovarian
[9] = test system: NCI-H460 NSCLC
[10] = test system: 786-0 renal
[11] = test system: HCT-15 colon
[12] = test system: OVCAR-5 ovarian
[13] = test system: SF-295 CNS
[14] = test system: HCC-2998 colon
[15] = test system: NCI-H322M lung
[16] = test system: K-562 leukemia
[17] = test system: RXF 393 renal
[18] = test system: MDA-MB-468 breast
[19] = test system: IGROV1 ovarian
[20] = test system: SK-OV-3 ovarian
[21] = test system: NCI-H226 lung
[22] = test system: A549 NSCLC
[23] = test system: CCRF-CEM leukemia
[24] = test system: A498 renal
[25] = test system: MDA-MB-231 breast
[26] = test system: COLO 205 colon
[27] = test system: OVCAR-4 ovarian
[28] = test system: SNB-19 CNS
[29] = test system: UACC-62 melanoma
[30] = test system: TK-10 renal
[31] = test system: NCI-H23 lung
[32] = test system: MALME-3M melanoma
[33] = test system: U251 glioblastoma
[34] = test system: LOX IMVI melanoma
[35] = test system: CAKI-1 renal
[36] = test system: SK-MEL-28 melanoma
[37] = test system: NCI-H522 lung
[38] = test system: HL-60(TB) leukemia
[39] = test system: HOP-62 NSCLC
[40] = test system: SNB-75 CNS
[41] = test system: OVCAR-3 ovarian
[42] = test system: UO-31 renal
[43] = test system: SK-MEL-5 melanoma

Q: With FC(F)(c1ccc2ncccc2c1)c1nnc2ccc(-c3ccncc3)nn12 as the compound, how does the GI50 [1] read?
A: 164 nM

Q: And the TGI [1]?
A: > 100000 nM

Q: And the GI50 [2]?
A: < 10 nM

Q: What about the TGI [2] of the same compound?
A: 126 nM

Q: And the GI50 [3]?
A: < 10 nM

Q: What about the GI50 [4] of the same compound?
A: < 10 nM

Q: And the TGI [4]?
A: 137 nM

Q: What about the GI50 [5] of the same compound?
A: 185 nM

Q: What about the TGI [5] of the same compound?
A: > 100000 nM

Q: And the GI50 [6]?
A: 33 nM

Q: And the TGI [6]?
A: > 100000 nM

Q: And the GI50 [7]?
A: 10.2 nM

Q: And the TGI [7]?
A: 183 nM

Q: What about the GI50 [8] of the same compound?
A: 460 nM

Q: What about the TGI [8] of the same compound?
A: 27200 nM

Q: And the GI50 [9]?
A: < 10 nM

Q: What about the TGI [9] of the same compound?
A: > 100000 nM

Q: What about the GI50 [10] of the same compound?
A: 191 nM

Q: And the TGI [10]?
A: > 100000 nM

Q: What about the GI50 [11] of the same compound?
A: 55.7 nM

Q: And the TGI [11]?
A: > 100000 nM

Q: And the GI50 [12]?
A: 112 nM

Q: And the TGI [12]?
A: > 100000 nM

Q: And the GI50 [13]?
A: < 10 nM

Q: What about the TGI [13] of the same compound?
A: 108 nM

Q: And the GI50 [14]?
A: < 10 nM

Q: And the TGI [14]?
A: > 100000 nM

Q: And the GI50 [15]?
A: < 10 nM

Q: What about the TGI [15] of the same compound?
A: > 100000 nM

Q: What about the GI50 [16] of the same compound?
A: 219 nM

Q: What about the TGI [16] of the same compound?
A: > 100000 nM

Q: And the GI50 [17]?
A: 11.2 nM

Q: What about the TGI [17] of the same compound?
A: 206 nM

Q: What about the GI50 [18] of the same compound?
A: 22 nM

Q: And the TGI [18]?
A: 628 nM

Q: Which results are given for CN(Cc1cnc2nc(N)nc(N)c2n1)c1ccc(C(=O)N[C@@H](CCC(=O)O)C(=O)O)cc1?
A: GI50 [19]: 28.6 nM; GI50 [20]: 1450 nM; GI50 [21]: 28.9 nM; TGI [22]: 17.8 nM; TGI [23]: < 11.3 nM; GI50 [24]: < 18.8 nM; TGI [24]: 232 nM; GI50 [25]: 263 nM; TGI [25]: 680 nM; TGI [1]: 13600 nM; GI50 [26]: 51.3 nM; TGI [26]: 95900 nM; GI50 [3]: 17.3 nM; TGI [3]: 42.1 nM; GI50 [4]: < 15.1 nM; TGI [4]: 31.6 nM; TGI [27]: 66.5 nM; GI50 [28]: < 19.7 nM; GI50 [29]: 18.9 nM; TGI [7]: 18.1 nM; GI50 [30]: 23.6 nM; TGI [30]: 52.3 nM; GI50 [31]: 30.4 nM; TGI [31]: 308 nM; GI50 [32]: < 15.3 nM; GI50 [33]: 31.7 nM; TGI [34]: 14 nM; GI50 [35]: 26.3 nM; TGI [35]: 73.8 nM; GI50 [36]: 27.7 nM; TGI [36]: 60.7 nM; GI50 [37]: 32 nM; TGI [37]: 543 nM; TGI [38]: < 14.2 nM; TGI [12]: < 15.4 nM; GI50 [13]: < 13.5 nM; TGI [13]: < 20.9 nM; GI50 [14]: 39.1 nM; GI50 [39]: 37.5 nM; TGI [39]: 123 nM; GI50 [15]: < 12.6 nM; TGI [15]: 22.6 nM; GI50 [40]: < 12.9 nM; TGI [40]: < 28.3 nM; GI50 [41]: < 14.8 nM; TGI [41]: 27.6 nM; GI50 [42]: 29.5 nM; TGI [42]: 9760 nM; GI50 [43]: 130 nM; TGI [43]: 87300 nM
